These compounds were tested on HCV replicon cells Huh 9B (assay: HCV replicon assay (luciferase) in Huh 9B replicon cells). Settings: Hepatitis C virus; concentration reducing replicon level (luciferase activity) by 50% vs untreated cell control; 72 h incubation.
Type: cell-based
Protocol: HCV replicon cells Huh 9B (ReBlikon), containing the firefly luciferase—ubiquitin—neomycin phosphotransferase fusion protein and EMCV-IRES driven HCV polyprotein with cell culture adaptive mutations.
Cells were cultured at 37° C. in a 5% CO2 environment and split twice a week on seeding at 2×10E6 cells/flask on day 1 and 1×10E6 3 days later. Some 0.25 mg/ml G418 was added to the culture medium (125 ul per 25 ml) but not the assay medium.
The culture medium consisted of DMEM with […] glucose and glutamax (Gibco 61965-026) supplemented with 1× non-essential amino acids, penicillin (100 IU/ml)/streptomycin (100 μg/ml), FCS (10%, 50 ml) and 1 mg/ml G418 (Invitrogen cat no 10131-027) & 10% foetal calf serum.
A flask of cells was trypsinised and a cell count carried out. Cells were diluted to 100,000 cells/ml and 100 μl of this used to seed one opaque white 96-well plate (for the replicon assay) and one flat-bottomed clear plate (for the tox assay) for every seven compounds to be tested for IC50. Wells G12 and H12 were left empty in the clear plate as the blank. Plates were then incubated at 37° C. in a 5% CO2 environment for 24 h.
On the following day compound dilutions are made up in medium at twice their desired final concentration in a clear round bottomed plate. All dilutions have a final DMSO concentration of 1%.
Once the dilution plate had been made up, controls and compounds were transferred to the assay plate (containing the cells) at 100 μl/well in duplicate plates.
Exception: in the white (replicon) plate, no compound was added to wells A1 and A2 and 100 μl of 1% DMSO was added to these instead. In the clear (Tox) plate, wells E12 & F12 only contained the DMSO control. Plates were then incubated at 37° C. with 5% CO2 for 72 h.
At the end of the incubation time, the cells in the white plate were harvested by washing with 200 μl/well of warm (37° C.) PBS and lysed with 20 μl cell culture lysis buffer (Promega). After 5 min incubation @ RT, luciferin solution was added to the luciferase assay buffer (LARB at 200 μl per 10 ml LARB. The M injector of the microplate luminometer (Lmax, Molecular Devices) was primed with […] injections. Plate were inserted into the luminometer and 100 μl luciferase assay reagent was added by the injector on the luminometer. The signal was measured using a 1 second delay followed by a 4 second measurement programme. The IC50, the concentration of the drug required for reducing the replicon level by 50% in relation to the untreated cell control value, can be calculated from the plot of the percentage reduction of the luciferase activity vs. drug concentration.
COc1cc(Nc2ncnc3ccc(-c4cccs4)cc23)ccc1N1CCOCC1 [Example 42, (3-Methoxy-4-morpholin-4-yl-phenyl)-(6-thiophen-2-yl-quinazolin-4-yl)-amine] was tested, and the IC50 was under 1000 nM.
Compound O=Cc1ccc(-c2ccc3ncnc(Nc4ccc(N5CCOCC5)cc4)c3c2)o1 [Example 7, 5-[4-(4-Morpholin 4-yl-phenylamino)-quinazolin-6-yl]-furan-2-carbaldehyde] has an IC50 of under 1000 nM.
Ic1ccc2ncnc(Nc3ccc(N4CCOCC4)cc3)c2c1 [Example 2, (6-Iodo-quinazolin-4-yl)-(4-morpholin-4-yl-phenyl)-amine] showed an IC50 of under 1000 nM.
CS(=O)(=O)Nc1cccc(-c2ccc3ncnc(Nc4ccc(N5CCOCC5)cc4)c3c2)c1 [Example 38, N-{3-[4-(4-Morpholin-4-yl-phenylamino)-quinazolin-6-yl]-phenyl}-methanesulfonamide] gave an IC50 of under 5000 nM.
For CCOC(=O)c1cccc(NC(=O)c2ccc3ncnc(Nc4ccc(N5CCOCC5)cc4)c3c2)c1 [Example 27, 3-{[4-(4-Morpholin-4-yl-phenylamino)-quinazoline-6-carbonyl]-amino}-benzoic acid ethyl ester], the IC50 was under 5000 nM.
Compound CN1CCN(Cc2ccc(-c3ccc4ncnc(Nc5ccc(N6CCOCC6)cc5)c4c3)o2)CC1 [Example 11, {6-[5-(4-Methyl-piperazin-1-ylmethyl)-furan-2-yl]-quinazolin-4-yl}-(4-morpholin-4-yl-phenyl)-amine] has an IC50 of under 5000 nM.
For Cc1cc(Nc2ncnc3ccc(-c4cccs4)cc23)ccc1N1CCOCC1 [Example 44, (3-Methyl-4-morpholin-4-yl-phenyl)-(6-thiophen-2-yl-quinazolin-4-yl)-amine], the IC50 was under 1000 nM.
In the case of CN(c1ccc(N2CCOCC2)cc1)c1ncnc2ccc(I)cc12 [Example 46, (6-Iodo-quinazolin-4-yl)-methyl-(4-morpholin-4-yl-phenyl)amine], the IC50 is reported as under 1000 nM.
For CCN(c1ccc(N2CCOCC2)cc1)c1ncnc2ccc(-c3cccs3)cc12 [Example 45, Ethyl-(4-morpholin-4-yl-phenyl)-(6-thiophen-2-yl-quinazolin-4-yl)-amine], the IC50 was under 5000 nM.
c1ccc(COc2ccccc2-c2ccc3ncnc(Nc4ccc(N5CCOCC5)cc4)c3c2)cc1 [Example 50, [6-(2-Benzyloxy-phenyl)-quinazolin-4-yl]-(4-morpholin-4-yl-phenyl)-amine] showed an IC50 of under 5000 nM.

Source: patent US20080311076A1, “Morpholinylanilinoquinazoline Derivatives For Use As Antiviral Agents” (ARROW THERAPEUTICS LIMITED, priority 2004, published 2008)
